From publication PMC6348444, “New Water-Soluble Copper(II) Complexes with Morpholine–Thiosemicarbazone Hybrids: Insights into the Anticancer and Antibacterial Mode of Action” (Journal of Medicinal Chemistry, 2018)
Read-outs that look alike come from different tables or passages of the source. Marks after values point to notes of the source that are not given here.

Experiments:
[1] = system: A2780 cells; test: MTT cytotoxicity assay, A2780; format: cell-based, human
[2] = system: A2780cisR cells; test: MTT cytotoxicity assay, A2780cisR; format: cell-based, human; conditions: for RF (resistance factor): IC50(A2780cisR)/IC50(A2780); for IC50: MTT assay, 72 h exposure, cisplatin-resistant A2780cisR, read-out: IC50 A2780cis
[3] = system: HEK293 cells; test: MTT cytotoxicity assay, HEK293; format: cell-based, human; conditions: for SF (selectivity factor): IC50(HEK293)/IC50(A2780); for IC50: MTT assay, 72 h exposure, noncancerous cells
[4] = system: A2780 cells; test: Cellular accumulation of Cu by ICP-MS; format: cell-based, human; conditions: 24 h exposure
Excerpt: The ability of anticancer drugs to penetrate biological membranes, tissues, and barriers underlies their biological, pharmacokinetic, and metabolic properties. These properties can be predicted by calculating physicochemical characteristics of drug candidates using molecular descriptors.[30] […] The results are shown in Table S7 in the Supporting Information. On the basis of the calculated physicochemical parameters, we determined if novel compounds belonged to the drug-like chemical space, which is commonly defined by the well-known Lipinski rule, or to the known drug space (KDS), which includes all small compounds in medical use.[31] […] Following the calculations, we determined the lipophilicity of all compounds experimentally (log D7.4, Tables 1 and 2). It is known that cancer cells accumulate hydrophilic compounds to a smaller extent relative to hydrophobic compounds, thereby affecting their activity. […] As expected, proligands were more lipophilic than the corresponding Cu(II) species, which are positively charged at physiological pH (Figure 3b). […] The lipophilicity of 2–5 increased in the following order 4 < 2 < 3 < 5, and correlated well with their cytotoxicity in cancer cells, with the exception of 3. Subsequently, we determined the total cellular accumulation of Cu in A2780 cells by ICP–MS upon 24 h exposure to 1–6 in comparison with CuCl2 (Table 2). […] The accumulation increased in the order 6 < 1 < 3 < 4 < 2 < 5.
Cellular accumulation of 1–6 was determined in A2780 cells. Cells were seeded into Cellstar 6-well plates (Greiner Bio-one) at a density of 60 × 10^4 cells/well (2 mL per well). After the cells were allowed to resume exponential growth for 24 h, they were exposed to 1–6 at 1 μM for 24 h at 37 °C. The cells were washed twice with 1 mL of PBS and lysed with RIPA lysis buffer for 5–10 min at 4 °C. The cell lysates were scraped from the wells and transferred to separate 1.5 mL microtubes. The supernatant was then collected after centrifugation (13 000 rpm, 4 °C for 15 min) and total protein content of each sample was quantified via Bradford’s assay. Cell lysates were transferred to 2 mL glass vials and then digested with ultrapure 65% HNO3 at 100 °C for 24 h. The resulting solution was diluted to 1 mL (2–4% v/v HNO3) with ultrapure Milli-Q water. Cu content of each sample was quantified by ICP–MS. In was used as an internal standard. Cu and In were measured at m/z 64 and m/z 115, respectively. Metal standards for calibration curve (0, 0.5, 1, 2, 5, 10, 20, and 40 ppb) were freshly prepared before each measurement. All readings were made in triplicates in He mode. For temperature-dependent cellular accumulation experiments, A2780 cells were seeded into 35 n 10 mm tissue culture plates at a density of 60 0 10^4 cells/plate. After the cells were allowed to resume exponential growth for 24 h, they were exposed to 2 at 3 μM for 10, 30, 60, and 120 min at 37 and 4 °C. The subsequent analysis was performed as described above. For energy-dependent experiments, A2780 cells were seeded into 35 5 10 mm tissue culture plates at a density of 1 0 10^6 cells/plate. After the cells were allowed to resume exponential growth for 24 h, they were preincubated with oligomycin (5 μM) for 1 or 4 h or with cycloheximide (100 μM) for 4 h and further co-incubated with 3 μM of 2 at 37 °C. To induce total starvation, after the cells were allowed to resume exponential growth for 24 h, RPMI media was replaced with HBSS, and cells were preincubated in HBSS for 1 h and further incubated with 3 μM of 2 for 1 h at 37 °C. The subsequent analysis was performed as described above.

[5] = system: A2780 cells; test: Annexin V/PI apoptosis assay; format: cell-based, human; conditions: A2780, concentration corresponding to Cu content in 2 at 2IC50
Excerpt: To elucidate if observed cytotoxicity of new compounds described in this study was a result of apoptosis induction, we conducted Annexin V/PI apoptosis assay. In brief, fluorochrome-labeled Annexin V reagent is used for detection of membrane phosphatidylserine (PS), which translocates to the cellular surface from the inner side of plasma membrane in the event of early apoptosis. Simultaneously, PI is used for detection of later stages of apoptosis or necrosis, which are characterized by loss of membrane integrity and accumulation of PI inside the cells. […] Results are illustrated in Figure 9. Upon incubation of A2780 cells with increasing concentrations of HL^2 and 2, the dose-dependent increase of apoptotic cells was observed.
A2780 cells were seeded into Cellstar 12-well plates (Greiner Bio-One) at a density of 20 × 10^4 cells/well (1 mL per well). The cells were allowed to resume exponential growth for 24 h and subsequently they were exposed to HL^2 and 2 at different concentrations for 24 h. After the supernatant solution was collected in 1.5 mL microtubes, the cells were washed with 100 μL of trypsin, which was combined with the supernatant. Subsequently, cells were trypsinized with 200 μL of trypsin for 5 min at 37 °C, 5% CO2, washed with 200 μL of PBS, and combined with the supernatant. The cells were centrifuged at 2.5 × 10^3 rpm for 5 min and the pellets were washed once with PBS and resuspended in 500 μL of Annexin V binding buffer and stained with Annexin V-FITC and PI reagents. The fluorescence was immediately analyzed by flow cytometry. The resulting dot blots were acquired from 10 000 events and quantified using Flowjo software (Flowjo LLC, Ashland, OR, USA).

[6] = n-octanol/water distribution coefficient, shake-flask; format: physicochemical; conditions: n-octanol/buffered aqueous solution, pH 7.40, UV-vis
Method: The titrations were carried out under a nitrogen atmosphere.

[7] = system: Staphylococcus aureus CECT 86 (ATCC 12600); test: MIC microdilution, S. aureus; format: cell-based; conditions: planktonic cells; for S. aureus MIC50: growth inhibited at 50%; for S. aureus MIC100: lowest concentration completely inhibiting growth
Method: (§1) Wild-type P. aeruginosa PAO1 strain CECT 4122 (ATCC 15692) and S. aureus CECT 86 (ATCC 12600) were obtained from the Spanish Type Culture Collection (CECT). All strains were routinely cultivated in TSB medium (Sharlab, Spain) at 37 °C. MIC assays were determined by the microdilution method using TSB broth following the method described by the Clinical and Laboratory standards Institute.[94] In brief, compounds were diluted in a 96-well microtiter plate (tissue culture-treated polystyrene; […]

[8] = system: Pseudomonas aeruginosa PAO1 CECT 4122 (ATCC 15692); test: MIC microdilution, P. aeruginosa; format: cell-based; conditions: planktonic cells; for P. aeruginosa MIC50: growth inhibited at 50%; for P. aeruginosa MIC100: lowest concentration completely inhibiting growth
Method: as §1

[9] = Solubility in water; format: physicochemical; conditions: sterile water stock solutions
Method: Human ovarian carcinoma cells A2780 and A2780cisR and human embryonic kidney HEK293 were obtained from ATCC. A2780 and A2780cisR cells were cultured in RPMI 1640 medium containing 10% FBS. HEK293 were cultured in DMEM medium containing 10% FBS. All cells were grown in tissue culture 25 cm^2 flasks (BD Biosciences, Singapore) at 37 °C in a humidified atmosphere of 95% air and 5% CO2. All drug stock solutions were prepared in sterile water. The amount of Cu was determined by ICP–OES.

[10] = Cyclic voltammetry, redox potentials; format: physicochemical; conditions: first reduction step; for E1/2 Red1 (DMSO) vs NHE / E1/2 Red1 (MeOH) vs NHE: vs NHE (in brackets)
Method: To assess the redox properties of 1-6, detailed electrochemical and spectroscopic studies in various solvents were performed using cyclic voltammetry as well as EPR-spectroelectrochemistry. Additionally, the UV-vis spectra of 1-5 were measured (Figure S8). […] The second reduction step occurred at -1.8 V versus Fc^+/Fc (-1.16 V vs NHE) and was less reversible, indicating a ligand-based reduction. […] In aqueous solutions, the reduction potentials shifted to the less negative values, and reduction was less reversible as shown for 2 in Figure S10. […] Cyclic voltammetric experiments were performed as described previously.[46] The cyclic voltammograms were measured in the cathodic region in different solvents (DMSO, methanol, DMSO/H2O). The analytical purity grade LiClO4 (Sigma-Aldrich) and distilled and deionized water were used for preparation of 1 mM aqueous solutions of the investigated complexes 1-6. EPR spectra were recorded with the EMX plus. In situ UV-vis-NIR spectroelectrochemical measurements were performed on a spectrometer (Avantes, Model AvaSpec-2048x14-USB2 in the spectroelectrochemical cell kit ([…]3)) with the Pt-microstructured honeycomb working electrode, purchased from Pine Research Instrumentation. The cell was positioned in the CUV-UV Cuvette Holder (Ocean Optics) connected to the diode-array UV-vis-NIR spectrometer by optical fibers. UV-vis-NIR spectra were processed using the AvaSoft 7.7 software package. Halogen and deuterium lamps were used as light sources (Avantes, Model AvaLight-DH-S-BAL). The in situ EPR spectroelectrochemical experiments were carried out under an argon atmosphere in the EPR flat cell equipped with a large platinum mesh working electrode. The freshly prepared solutions were carefully purged with argon and the electrolytic cell was polarized in the galvanostatic mode directly in the cylindrical EPR cavity TM-110 (ER 4103 TM), and the EPR spectra were measured in situ.

[11] = target: T1, mouse R2 RNR protein (Mus musculus, UniProt P11157); parameters: method as in PMID 21955844; conditions: mouse R2, after 5 min, same experimental conditions; cited from earlier work
T1 construct: made in house; host or cells: Escherichia coli
T1 sequence (P11157 1-390): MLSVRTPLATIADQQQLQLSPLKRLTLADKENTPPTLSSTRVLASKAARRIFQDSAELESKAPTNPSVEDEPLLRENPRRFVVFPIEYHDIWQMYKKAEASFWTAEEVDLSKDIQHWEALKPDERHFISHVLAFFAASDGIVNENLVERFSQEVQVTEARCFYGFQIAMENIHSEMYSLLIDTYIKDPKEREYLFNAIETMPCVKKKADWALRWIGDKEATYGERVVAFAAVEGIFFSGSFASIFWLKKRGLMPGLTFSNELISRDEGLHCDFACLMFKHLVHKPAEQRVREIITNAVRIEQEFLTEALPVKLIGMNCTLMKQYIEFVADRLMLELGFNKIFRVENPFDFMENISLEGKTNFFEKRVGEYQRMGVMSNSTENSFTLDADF

Row | SMILES | IC50 ([1]; 72 h exposure) | RF (resistance factor) [2] | IC50 [2] | SF (selectivity factor) [3] | IC50 [3] | log D7.4 [6] | cellular accumulation A2780 ([4]; 1 μM) | S. aureus MIC50 [7] | S. aureus MIC100 [7] | P. aeruginosa MIC50 [8] | P. aeruginosa MIC100 [8] | solubility in water [9] | E1/2 Red1 (DMSO) vs Fc+/Fc [10] | E1/2 Red1 (DMSO) vs NHE [10] | E1/2 Red1 (MeOH) vs Fc+/Fc [10] | E1/2 Red1 (MeOH) vs NHE [10] | also measured
1 | [Cl][Cu][Cl] [CuCl2, reference compound] | 83000 ± 12000 nM | 1.0 | 82000 ± 3000 nM | 2.3 | 187000 ± 37000 nM | – | – | – | – | – | – | – | – | – | – | – | cellular accumulation A2780 ([4]; 2.5 μM): 0.17 ± 0.05 ^f nmol Cu/mg protein; induction of apoptosis [5]: no induction of apoptosis was detected
2 | NC(=NN=Cc1ccc(CN2CCOCC2)cn1)[S][Cu][Cl] [complex 1, [Cu(L^1)Cl]] | 2200 ± 100 nM | 5.9 | 13000 ± 4000 nM | 7.3 | 16000 ± 2000 nM | –0.81 ± 0.04 | 0.63 ± 0.09 nmol Cu/mg protein | 100 µg/mL | >500 µg/mL | NA (NA denotes no antibacterial activity detected (>500 μg/mL)) | NA (NA denotes no antibacterial activity detected (>500 μg/mL)) | ≤ 2000 µM | –0.81 V | –0.17 V | –0.57 V | +0.07 V | –
3 | NC(=S)N/N=C/c1ncccc1N [triapine, 3-amino-2-pyridinecarboxaldehyde TSC, reference compound] | – | – | – | 0.6 | – | – | – | – | – | – | – | – | – | – | – | – | IC50 ([1]; Homo sapiens, A2780, 72 h exposure): 670 ± 220 nM; IC50 ([2]; Homo sapiens): 1100 ± 100 nM; IC50 ([3]; Homo sapiens, HEK293): 390 ± 50 nM; tyrosyl radical loss [11]: 100%
4 | [Cl][Cu][S]C(=NN=Cc1ccc(CN2CCOCC2)cn1)N1CCCC1 [complex 3, [Cu(L^3)Cl]] | 260 ± 20 nM | 2.3 | 600 ± 50 nM | 3.0 | 780 ± 200 nM | +0.86 ± 0.02 | 2.2 ± 0.6 nmol Cu/mg protein | 3 µg/mL | 10 µg/mL | 100 µg/mL | 400 µg/mL | 300 µM | –0.80 V | –0.16 V | –0.49 V | +0.15 V | –
